Measured values as given in patent US6593342B1, “Pharmaceutical compositions comprising 2-quinolones” (Laboratoire L. Lafon, priority 1998, dated 2003).

Columns and labels:
HCT-15 = experiment: MTT test, HCT-15; format: cell-based; settings: Homo sapiens, 10^−5 M, 72 hours, control = 100%, mean ± SEM, read-out: average optical density (MTT), percentage relative to control
Method: (§1) The influence of the compounds of formulae (I) and (Ia) on non-clonogenic cells was evaluated with the aid of the MTT calorimetric test.
(§2) The principle of the MTT test is based on the mitochondrial reduction, by the metabolically active live cells, of the yellow-colored product MTT (3-(4,5-dimethylthiazol-2-yl)-2,5-diphenyltetrazolium bromide) to a blue-colored product, formazan. The amount of formazan thus obtained is directly proportional to the amount of live cells present in the culture well(s). This amount of formazan is measured by spectrophotometry.
(§3) The cell lines are maintained as a monolayer culture at 37° C. in stoppered culture dishes containing MEM 25 MM HEPES (Minimum Essential Medium) base medium. This medium is suited to the growth of a range of various mammalian diploid or primary cells. This medium is then supplemented with:
(§4) an amount of 5% of FCS (Foetal Calf Serum) decomplemented at 56° C. for 1 hour,
(§5) 0.6 mg/ml of L-glutamine,
(§6) 200 μg/ml of streptomycin,
(§7) The 12 human cancer cell lines which were used were obtained from the American Type Culture Collection (ATCC, Rockville, Md., USA). These 12 cell lines are:
HTC-15 (code ATCC: CCL-225) and LoVo (code ATCC: CCL-229) which are two colorectal cancers,
(§8) Experimentally: 100 μl of a cell suspension containing 20 000 to 50 000 (depending on the cell type used) cells/ml of culture medium are inoculated in 96-well flat-bottomed multi-well plates and are incubated at 37° C., under an atmosphere comprising 5% CO2 and 70% humidity. After incubation for 24 hours, the culture medium is replaced with 100 μl of fresh medium containing either the various test compounds at concentrations ranging from 10^−5 to 10^−10 M or the solvent used to dissolve the test products (control condition). After incubation for 72 hours under the above conditions, the culture medium is replaced with 100 μl of a yellowish solution of MTT dissolved at a rate of 1 mg/ml in RPMI 1640. The microplates are reincubated for 3 hours at 37° C. and are then centrifuged for 10 minutes at 400×g. The yellowish solution of MTT is removed and the blue formazan crystals formed in the cell are dissolved in 100 μl of DMSO. The microplates are then shaken for 5 minutes. The intensity of the resulting blue coloration, and thus of the conversion of the yellow product MTT into blue formazan by the cells that are still alive at the end of the experiment, is quantified by spectrophotometry using a Dynatech Immunoassay System machine at wavelengths of 570 nm and 630 nm corresponding, respectively, to the maximum absorption wavelengths of formazan and to the background noise. Software incorporated in the spectrophotometer calculates the average optical density values and the standard deviation (SD) and standard error of mean (SEM) values.
(§9) By way of example, the results of the average optical density, expressed as a percentage relative to the average optical density measured under the control condition (set equal to 100%), obtained at a concentration of 10^−5 M on the 12 abovementioned tumor cell lines are given in Table II.

[1] = Determination of the maximum tolerated dose (MTD); settings: mouse, in vivo, ip; B6D2F1/Jico mice; single intraperitoneal administration, 2.5 to 160 mg/kg; survival over 14 days
Method: 3.—Determination of the Maximum Tolerated Dose (MTD):
The evaluation of the maximum tolerated dose was carried out on 4- to 6-week-old B6D2F1/Jico mice. The compounds were administered intraperitoneally at increasing doses graduating from 2.5 to 160 mg/kg. The value of the MTD (expressed in mg/kg) is determined from the observation of the survival rate of the animals over a 14-day period after a single administration of the product under consideration. The weight change of the animals is also monitored during this period. When the value of the MTD is greater than 160 mg/kg, the MTD value is likened to 160 mg/kg by default.
The results of the estimation of the maximum tolerated dose (MTD) are collated in the following table: […]

A549 = experiment: MTT test, A549; format: cell-based; settings: Homo sapiens, 10^−5 M, 72 hours, control = 100%, mean ± SEM, read-out: average optical density (MTT), percentage relative to control
Method: as §1, §2, §3, §4, §5, §6, §7
A549 (code ATCC: CCL-185) and A-427 (code ATCC: HTB-53) which are two non-small-cell lung cancers,
as §8, §9

U-373MG = experiment: MTT test, U-373MG; format: cell-based; settings: Homo sapiens, U373 MG, 10^−5 M, 72 hours, control = 100%, mean ± SEM, read-out: average optical density (MTT), percentage relative to control
Method: as §1, §2, §3, §4, §5, §6, §7
U-373MG (code ATCC: HTB-17) and U-87MG (code ATCC: HTB-14) which are two glioblastomas,
as §8, §9

## COc1ccc(-c2cc3c(OC)cc(OC)cc3[nH]c2=O)cc1 [CRL8246, 5,7-Dimethoxy-3-(4-methoxyphenyl)-1,2-dihydro-2-quinolinone]
HCT-15
  viability at 10 µM: 97.2 ± 5.1%
[1]
  MTD at 14 day: > 160 mg/kg
A549
  viability at 10 µM: 113 ± 2.1%
U-373MG
  viability at 10 µM: 96.6 ± 1.2%

## COc1ccc(-c2cc3c(OC)cc(OC)cc3n(CCC#N)c2=O)cc1 [CRL8247, 3-[5,7-Dimethoxy-3-(4-methoxyphenyl)-2-oxo-1,2-dihydro-1-quinolinyl]propanenitrile]
HCT-15
  viability at 10 µM: 87.4 ± 2.5%
[1]
  MTD at 14 day: > 160 mg/kg
A549
  viability at 10 µM: 81.3 ± 1.9%
U-373MG
  viability at 10 µM: 68.7 ± 2.8%

## COc1ccc(-c2cc3c(OC)cc(OC)cc3n(CCc3nnn[nH]3)c2=O)cc1 [CRL8256, 1-[2-(1H-1,2,3,4-Tetrazol-5-yl)ethyl]-5,7-dimethoxy-3-(4-methoxyphenyl)-1,2-dihydro-2-quinolinone]
HCT-15
  viability at 10 µM: 73.9 ± 3.6%
[1]
  MTD at 14 day: > 160 mg/kg
A549
  viability at 10 µM: 56.5 ± 3.7%
U-373MG
  viability at 10 µM: 76.1 ± 2.6%

## CCN(CC)C(=O)CCn1c(=O)c(-c2ccc(OC)cc2)cc2c(OC)cc(OC)cc21 [CRL8283, N,N-Diethyl-3-[5,7-dimethoxy-3-(4-methoxy-phenyl)-2-oxo-1,2-dihydro-1-quinolinyl]propanamide]
HCT-15
  viability at 10 µM: 58.2 ± 4.3%
[1]
  MTD at 14 day: > 160 mg/kg
A549
  viability at 10 µM: 63.6 ± 4.2%
U-373MG
  viability at 10 µM: 93.4 ± 1.5%

## CCN(CC)C(=O)Cn1c(=O)c(-c2ccc(OC)cc2)cc2c(OC)cc(OC)cc21 [CRL8315, N,N-Diethyl-2-[5,7-dimethoxy-3-(4-methoxy-phenyl)-2-oxo-1,2-dihydro-1-quinolinyl]acetamide]
HCT-15
  viability at 10 µM: 87.9 ± 3.3%
[1]
  MTD at 14 day: > 160 mg/kg
A549
  viability at 10 µM: 76.1 ± 2.4%
U-373MG
  viability at 10 µM: 68.9 ± 2.2%

## COc1ccc(-c2cc3c(OC)cc(OC)cc3n(CCN(C)C)c2=O)cc1 [CRL8316, 1-[2-(Dimethylamino)ethyl]-5,7-dimethoxy-3-(4-methoxyphenyl)-1,2-dihydro-2-quinolinone]
HCT-15
  viability at 10 µM: 79.8 ± 2.9%
[1]
  MTD at 14 day: > 160 mg/kg
A549
  viability at 10 µM: 84.2 ± 1.9%
U-373MG
  viability at 10 µM: 89.8 ± 2.9%
